Usually IC50 stands for the concentration that inhibits the measured activity by half. Low values mean greater potency in that assay, high ones weaker potency in that assay.

What all share (assay): MTT cell viability assay
Common to all, as to type: cell-based

The subject of one test is HBL2. Particulars: HBL2, GCB DLBCL, RPMI 10% FBS. The text has this:
(§1) A total of 60 cell lines representative of different cancer types were obtained from the ATCC and grown and maintained in accordance with the provided guidelines. The cell lines represented the following distinct histologies: mantle cell lymphoma (5 lines: JVM13, Rec1, Mino, JVM2, Jeko); germinal center B-cell derived (“GCB”) DLBCL (19 lines: Farage, BJAB, Ly1, Ly2, Ly7, Ly8, Ly19, HBL2, HT, Karpas422, Pfeiffer, RCK8, RL, Sci-1, Ski, SUDHL4, SUDHL7, Toledo, WSU-NHL); primary mediastinal B-cell lymphoma (“PMBL”) (3 lines: K1106, MEDB1, U2940); Burkitt lymphoma (11 lines: Daudi, CA46, EB1, EB2, EB3, Jijoye, Raji, Ramos, Namwala, BL2, BL41); Hodgkin lymphoma (3 lines: RMPI6666, L1236, L428); activated B-cell derived (“ABC”) DLBCL (6 lines: Ly3, HBL1, TMD8, Ly10, Riva, U2932); multiple myeloma (6 lines: U266, SKMM1, RPMI8226, KMS12, IM9, H929); acute myelogenous leukemia (“AML”) (2 lines: U937, KG1); acute lymphoblastic leukemia (“ALL”) (2 lines: Reh, SR); and T-cell lymphoma (3 lines: Molt4, RPMI8402, Jurkat). The cell lines were tested within six months after resuscitation.
(§2) The 3-(4,5-dimethylthiazol-2-yl)-2,5-diphenyltetrazolium bromide (MTT) cell viability assay was used to determine cell viability in response to drug treatment. Five replicates per concentration tested were carried out in serial dilutions with a total of ten concentrations with a 50% reduction in drug concentration per dilution for each plate. A total of 15 μl of MTT reagent was added to each drug-treated well and incubated for three hours in 37° C. Detergent was added to each drug-treated well and incubated overnight at room temperature without exposure to light. Absorbance was measured at 570 nm using a plate reader from Tecan Group. The IC50 concentration was determined using the publicly available ED50 plus v1.0 software program.

A further test has as its system BL41. Particulars: Homo sapiens, BL-41; BL41, Burkitt Lymphoma, RPMI 10% FBS.
Description: as §1, §2

The subject of a further test is HT. As to conditions: Homo sapiens, GCB DLBCL, RPMI 10% FBS.
Description: as §1, §2

For the next test, the system named is KMS12. Particulars: KMS12, Multiple Myeloma, RPMI 10% FBS.
Description: as §1, §2

A further test has as its system L428. Particulars: Homo sapiens, L-428; L428, Hodgkin Lymphoma, RPMI 10% FBS.
Description: as §1, §2

The test system of another test is Ramos. Particulars: Homo sapiens, Burkitt Lymphoma, RPMI 10% FBS.
Description: as §1, §2

Another test concerns JVM13. As to conditions: JVM13, MantleCellLymphoma, RPMI 10% FBS.
Description: as §1, §2

The test system of the next test is LY8. As to conditions: LY8, GCB DLBCL, OCI.
Description: as §1, §2

Another test concerns Jurkat. As to conditions: Homo sapiens, T-cell, RPMI 10% FBS.
Description: as §1, §2

The next test relates to LY2. Particulars: LY2, GCB DLBCL, OCI.
Description: as §1, §2

In another test the test system is WSUNHL. Particulars: Homo sapiens, WSU-NHL, GCB DLBCL, RPMI 10% FBS.
Description: as §1, §2

The next test relates to HBL1. As to conditions: HBL1, ABC DLBCL, RPMI 10% FBS.
Description: as §1, §2

The next test relates to RMPI6666. As to conditions: RMPI6666, Hodgkin Lymphoma, RPMI 10% FBS.
Description: as §1, §2

The test system of another test is Ski. Particulars: GCB DLBCL, RPMI 10% FBS.
Description: as §1, §2

The test system of a further test is SKMM1. Particulars: SKMM1, Multiple Myeloma, RPMI 10% FBS.
Description: as §1, §2

The test system of a further test is SR. Particulars: Homo sapiens, ALL, RPMI 10% FBS.
Description: as §1, §2

The subject of another test is U2940. Particulars: Homo sapiens, U-2940; U2940, PMBL, RPMI 10% FBS.
Description: as §1, §2

For the next test, the system named is SUDHL7. Particulars: SUDHL7, GCB DLBCL, RPMI 15% FBS.
Description: as §1, §2

A further test concerns RPMI8226. Particulars: Homo sapiens, RPMI-8226; RPMI8226, Multiple Myeloma, RPMI 10% FBS.
Description: as §1, §2

The subject of a further test is Riva. Particulars: ABC DLBCL, RPMI 10% FBS.
Description: as §1, §2

For the next test, the system named is Namwala. As to conditions: Burkitt Lymphoma, RPMI 10% FBS.
Description: as §1, §2

A further test relates to JVM2. As to conditions: Homo sapiens, JVM-2; JVM2, MantleCellLymphoma, RPMI 10% FBS.
Description: as §1, §2

A further test relates to BL2. As to conditions: BL2, Burkitt Lymphoma, RPMI 10% FBS.
Description: as §1, §2

As to `Nc1cc(C(F)(F)F)c(-c2cc(N3CCOCC3)nc(N3CCOCC3)n2)cn1` [BKM120], the IC50 worked out at 1420 nM in the test on HBL2; 5030 nM in the test with BL41; 435 nM with HT; 954 nM in the test on KMS12; 1870 nM in the test on L428; 1040 nM in the test with Ramos. The IC50 in the test on JVM13 stood at 933 nM; with LY8, 1370 nM; in the test on Jurkat, 1190 nM; with LY2, 2220 nM; with WSUNHL it was 1260 nM; in the test with HBL1, 1670 nM. Besides, the IC50 in the test on RMPI6666 stood at 3300 nM; with Ski, 236 nM; with SKMM1, 826 nM; in the test with SR, 807 nM; with U2940, 4450 nM; with SUDHL7, 233 nM. Further, the IC50 stood at 674 nM in the test on RPMI8226; 476 nM with Riva; 714 nM in the test with Namwala; 1390 nM in the test with JVM2; 722 nM with BL2.

In the case of `Cn1c(=O)n(-c2ccc(C(C)(C)C#N)cc2)c2c3cc(-c4cnc5ccccc5c4)ccc3ncc21` [BEZ235], the half-inhibitory concentration (IC50) in the test with HBL2 is 1560 nM; in the test with BL41 it was 11.6 nM; in the test on HT it was 2610 nM; with KMS12, 23.1 nM; in the test on L428 it was 14.6 nM; with Ramos it was 51 nM. Further, the IC50 in the test on JVM13 came to 869 nM; in the test with LY8 it was 694 nM; with Jurkat, 33.2 nM; in the test on LY2, 29.7 nM; in the test on WSUNHL, 16.2 nM; in the test on HBL1, 71.7 nM. For the same compound, the IC50 in the test on RMPI6666 was found to be 52 nM; with Ski, 25 nM; in the test with SKMM1 it was 48.4 nM; with SR, 64.2 nM; in the test with U2940 it was 35.4 nM; with SUDHL7 it was 22.2 nM. In addition, the IC50 in the test on RPMI8226 was found to be 56.9 nM; with Riva it was 517 nM; in the test on Namwala, 32.1 nM; with JVM2, 491 nM; in the test on BL2 it was 49.9 nM.

The record behind these values is patent US9861625B2, “Methods and compositions for treating cancer through inhibition of PI3K” (Duke University, priority 2014, dated 2018).
